This is an account of results in US20260007681A1, “INDOLE DERIVATIVES AS ESTROGEN RECEPTOR DEGRADERS” (REGENTS OF THE UNIVERSITY OF MICHIGAN, priority 2022, published 2026).

For the assay, the target named is ER (Homo sapiens (Human), UniProt P03372). Nature of the assay: Western blot analysis (Compounds B1-B278). The format is cell-based. As to conditions: ER degradation by traditional Western blot; DC50 classes. On the procedure: Western Blot Analysis. The cells that are treated with the compounds are lysed in Radioimmunoprecipitation Assay Protein Lysis and Extraction Buffer (e.g., 25 mmol/L Tris.HCl, pH 7.6, 150 mmol/L NaCl, 1% Nonidet P-40, 1% sodium deoxycholate, and 0.1% sodium dodecyl sulfate) containing proteinase inhibitor cocktail. Equal amounts of total protein are electrophoresed through 10% SDS-polyacrylamide gels after determination of protein concentration by BCA assay. The separated protein bands are transferred onto PVDF membranes and blotted against different antibodies. The blots are scanned, and the band intensities are quantified (e.g., by using GelQuant.NET software provided by biochemlabsolutions.com). The relative mean intensity of target proteins is expressed after normalization to the intensity of glyceraldehyde-3-phosphate dehydrogenase bands.
ER, sequence (P03372 whole entry): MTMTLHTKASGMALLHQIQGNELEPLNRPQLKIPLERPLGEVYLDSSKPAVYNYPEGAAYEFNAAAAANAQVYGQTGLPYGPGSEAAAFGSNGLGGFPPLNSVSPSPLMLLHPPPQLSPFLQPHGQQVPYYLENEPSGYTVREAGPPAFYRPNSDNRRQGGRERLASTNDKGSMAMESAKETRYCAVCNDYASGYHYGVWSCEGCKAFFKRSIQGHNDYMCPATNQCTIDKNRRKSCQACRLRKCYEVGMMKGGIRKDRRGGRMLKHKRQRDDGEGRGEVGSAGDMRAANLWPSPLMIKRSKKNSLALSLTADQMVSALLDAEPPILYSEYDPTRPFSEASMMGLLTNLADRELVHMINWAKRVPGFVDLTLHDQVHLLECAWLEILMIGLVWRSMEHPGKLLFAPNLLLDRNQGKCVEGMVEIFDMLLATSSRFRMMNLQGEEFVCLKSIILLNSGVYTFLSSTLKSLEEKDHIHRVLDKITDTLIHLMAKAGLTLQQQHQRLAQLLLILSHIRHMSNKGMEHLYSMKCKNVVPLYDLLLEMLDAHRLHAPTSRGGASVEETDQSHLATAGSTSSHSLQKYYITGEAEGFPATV
Western Blot Analysis. Western blot analysis was performed essentially as described previously. The cells treated with indicated compounds were lysed in Radioimmunoprecipitation Assay Protein Lysis and Extraction Buffer (25 mmol/L Tris.HCl, pH 7.6, 150 mmol/L NaCl, 1% Nonidet P-40, 1% sodium deoxycholate, and 0.1% sodium dodecyl sulfate) containing proteinase inhibitor cocktail (Roche Diagnostics, Mannheim, Germany). Equal amounts of total protein were electrophoresed through 10% SDS-polyacrylamide gels after determination of protein concentration by BCA assay (Fisher Scientific, Pittsburgh, PA). The separated protein bands were transferred onto PVDF membranes (GE Healthcare Life Sciences, Marlborough, MA) and blotted against different antibodies, as indicated. The blots were scanned, and the band intensities were quantified using GelQuant.NET software provided by biochemlabsolutions.com. The relative mean intensity of target proteins was expressed after normalization to the intensity of glyceraldehyde-3-phosphate dehydrogenase bands.

`C[C@@H]1Cc2c([nH]c3ccccc23)[C@@H](c2c(F)cc(N3CCCC4(CCN(C(=O)CN5Cc6cc7c(cc6C5)C(=O)N(C5CCC(=O)NC5=O)C7=O)C4)C3)cc2F)N1CC(F)F` (stereo partly drawn) [Compound B21, 6-(2-(7-(4-((1R,3R)-2-(2,2-difluoroethyl)-3-methyl-2,3,4,9-tetrahydro-1H-pyrido[3,4-b]indol-1-yl)-3,5-difluorophenyl)-2,7-diazaspiro[4.5]decan-2-yl)-2-oxoethyl)-2-(2,6-dioxopiperidin-3-yl)-6,7-dihydropyrrolo[3,4-f]isoindole-1,3(2H,5H)-dione]: the “Traditional Western Degradation Potency” value is “C (“C”: >100 nM)”.

As to `C[C@@H]1Cc2c([nH]c3ccccc23)[C@@H](c2c(F)cc(N3CCC4(CCN(C(=O)CN5Cc6cc7c(cc6C5)C(=O)N(C5CCC(=O)NC5=O)C7=O)C4)C3)cc2F)N1CC(F)F` (stereo partly drawn) [Compound B22, 6-(2-(7-(4-((1R,3R)-2-(2,2-difluoroethyl)-3-methyl-2,3,4,9-tetrahydro-1H-pyrido[3,4-b]indol-1-yl)-3,5-difluorophenyl)-2,7-diazaspiro[4.4]nonan-2-yl)-2-oxoethyl)-2-(2,6-dioxopiperidin-3-yl)-6,7-dihydropyrrolo[3,4-f]isoindole-1,3(2H,5H)-dione], the “Traditional Western Degradation Potency” value is listed as “B (“B”: 10-100 nM)”.

On to `C[C@H]1Cc2c([nH]c3ccccc23)[C@H](c2c(F)cc(N3CC4(CCCN(C(=O)CN5Cc6cc7c(cc6C5)C(=O)N(C5CCC(=O)NC5=O)C7=O)C4)C3)cc2F)N1CC(F)F` (stereo partly drawn) [Compound B23, 6-(2-(2-(4-((1S,3S)-2-(2,2-difluoroethyl)-3-methyl-2,3,4,9-tetrahydro-1H-pyrido[3,4-b]indol-1-yl)-3,5-difluorophenyl)-2,6-diazaspiro[3.5]nonan-6-yl)-2-oxoethyl)-2-(2,6-dioxopiperidin-3-yl)-6,7-dihydropyrrolo[3,4-f]isoindole-1,3(2H,5H)-dione], for which the “Traditional Western Degradation Potency” value is listed as “B (“B”: 10-100 nM)”.

As for `C[C@@H]1Cc2c([nH]c3ccccc23)[C@@H](c2c(F)cc(N3CCCC4(CN(C(=O)CN5Cc6cc7c(cc6C5)C(=O)N(C5CCC(=O)NC5=O)C7=O)C4)C3)cc2F)N1CC(F)F` (stereo partly drawn) [Compound B24, 6-(2-(6-(4-((1R,3R)-2-(2,2-difluoroethyl)-3-methyl-2,3,4,9-tetrahydro-1H-pyrido[3,4-b]indol-1-yl)-3,5-difluorophenyl)-2,6-diazaspiro[3.5]nonan-2-yl)-2-oxoethyl)-2-(2,6-dioxopiperidin-3-yl)-6,7-dihydropyrrolo[3,4-f]isoindole-1,3(2H,5H)-dione], the “Traditional Western Degradation Potency” value is recorded as “B (“B”: 10-100 nM)”.

Take `C[C@@H]1Cc2c([nH]c3ccccc23)[C@@H](c2c(F)cc(N3CC4(CN(C(=O)CN5Cc6cc7c(cc6C5)C(=O)N(C5CCC(=O)NC5=O)C7=O)C4)C3)cc2F)N1CC(F)F` (stereo partly drawn) [Compound B25, 6-(2-(6-(4-((1R,3R)-2-(2,2-difluoroethyl)-3-methyl-2,3,4,9-tetrahydro-1H-pyrido[3,4-b]indol-1-yl)-3,5-difluorophenyl)-2,6-diazaspiro[3.3]heptan-2-yl)-2-oxoethyl)-2-(2,6-dioxopiperidin-3-yl)-6,7-dihydropyrrolo[3,4-f]isoindole-1,3(2H,5H)-dione]: the “Traditional Western Degradation Potency” value was “A (“A”: <10 nM)”.

For `C[C@@H]1Cc2c([nH]c3ccccc23)[C@@H](c2c(F)cc(N3CCC4(CN(C(=O)CN5Cc6cc7c(cc6C5)C(=O)N(C5CCC(=O)NC5=O)C7=O)C4)C3)cc2F)N1CC(F)F` (stereo partly drawn) [Compound B26, 6-(2-(6-(4-((1R,3R)-2-(2,2-difluoroethyl)-3-methyl-2,3,4,9-tetrahydro-1H-pyrido[3,4-b]indol-1-yl)-3,5-difluorophenyl)-2,6-diazaspiro[3.4]octan-2-yl)-2-oxoethyl)-2-(2,6-dioxopiperidin-3-yl)-6,7-dihydropyrrolo[3,4-f]isoindole-1,3(2H,5H)-dione], the “Traditional Western Degradation Potency” value is on record as “A (“A”: <10 nM)”.

For the molecule `C[C@H]1Cc2c([nH]c3ccccc23)[C@H](c2c(F)cc(N3CC4(CCN(C(=O)CN5Cc6cc7c(cc6C5)C(=O)N(C5CCC(=O)NC5=O)C7=O)CC4)C3)cc2F)N1CC(F)F` (stereo partly drawn) [Compound B27, 6-(2-(2-(4-((1S,3S)-2-(2,2-difluoroethyl)-3-methyl-2,3,4,9-tetrahydro-1H-pyrido[3,4-b]indol-1-yl)-3,5-difluorophenyl)-2,7-diazaspiro[3.5]nonan-7-yl)-2-oxoethyl)-2-(2,6-dioxopiperidin-3-yl)-6,7-dihydropyrrolo[3,4-f]isoindole-1,3(2H,5H)-dione], the “Traditional Western Degradation Potency” value is recorded as “A (“A”: <10 nM)”.

With `C[C@H]1Cc2c([nH]c3ccccc23)[C@H](c2c(F)cc(N3CC4(CCN(C(=O)CN5Cc6cc7c(cc6C5)C(=O)N(C5CCC(=O)NC5=O)C7)CC4)C3)cc2F)N1CC(F)F` (stereo partly drawn) [Compound B28, 3-(6-(2-(2-(4-((1S,3S)-2-(2,2-difluoroethyl)-3-methyl-2,3,4,9-tetrahydro-1H-pyrido[3,4-b]indol-1-yl)-3,5-difluorophenyl)-2,7-diazaspiro[3.5]nonan-7-yl)-2-oxoethyl)-1-oxo-3,5,6,7-tetrahydropyrrolo[3,4-f]isoindol-2(1H)-yl)piperidine-2,6-dione], the “Traditional Western Degradation Potency” value was “A (“A”: <10 nM)”.

Consider `C[C@@H]1Cc2c([nH]c3ccccc23)[C@@H](c2c(F)cc(N3CCC(N4CCC(CN5Cc6cc7c(cc6C5)C(=O)N(C5CCC(=O)NC5=O)C7)CC4)CC3)cc2F)N1CC(F)F` (stereo partly drawn) [Compound B29, 3-(6-((1′-(4-((1R,3R)-2-(2,2-difluoroethyl)-3-methyl-2,3,4,9-tetrahydro-1H-pyrido[3,4-b]indol-1-yl)-3,5-difluorophenyl)-[1,4′-bipiperidin]-4-yl)methyl)-1-oxo-3,5,6,7-tetrahydropyrrolo[3,4-f]isoindol-2(1H)-yl)piperidine-2,6-dione], for which the “Traditional Western Degradation Potency” value is on record as “B (“B”: 10-100 nM)”.

Regarding `C[C@@H]1Cc2c([nH]c3ccccc23)[C@@H](c2c(F)cc(N3CCC(N4CCC(N5Cc6cc7c(cc6C5)C(=O)N(C5CCC(=O)NC5=O)C7=O)CC4)CC3)cc2F)N1CC(F)F` (stereo partly drawn) [Compound B30, 6-(1′-(4-((1R,3R)-2-(2,2-difluoroethyl)-3-methyl-2,3,4,9-tetrahydro-1H-pyrido[3,4-b]indol-1-yl)-3,5-difluorophenyl)-[1,4′-bipiperidin]-4-yl)-2-(2,6-dioxopiperidin-3-yl)-6,7-dihydropyrrolo[3,4-f]isoindole-1,3(2H,5H)-dione], the “Traditional Western Degradation Potency” value was “C (“C”: >100 nM)”.

Consider `C[C@@H]1Cc2c([nH]c3ccccc23)[C@@H](c2c(F)cc(N3CCC(N4Cc5cc6c(cc5C4)C(=O)N(C4CCC(=O)NC4=O)C6=O)CC3)cc2F)N1CC(F)F` (stereo partly drawn) [Compound B31, 6-(1-(4-((1R,3R)-2-(2,2-difluoroethyl)-3-methyl-2,3,4,9-tetrahydro-1H-pyrido[3,4-b]indol-1-yl)-3,5-difluorophenyl)piperidin-4-yl)-2-(2,6-dioxopiperidin-3-yl)-6,7-dihydropyrrolo[3,4-f]isoindole-1,3(2H,5H)-dione], for which the “Traditional Western Degradation Potency” value is listed as “C (“C”: >100 nM)”.

As for `C[C@@H]1Cc2c([nH]c3ccccc23)[C@@H](c2c(F)cc(N3CCC(CN4Cc5cc6c(cc5C4)C(=O)N(C4CCC(=O)NC4=O)C6=O)CC3)cc2F)N1CC(F)F` (stereo partly drawn) [Compound B32, 6-((1-(4-((1R,3R)-2-(2,2-difluoroethyl)-3-methyl-2,3,4,9-tetrahydro-1H-pyrido[3,4-b]indol-1-yl)-3,5-difluorophenyl)piperidin-4-yl)methyl)-2-(2,6-dioxopiperidin-3-yl)-6,7-dihydropyrrolo[3,4-f]isoindole-1,3(2H,5H)-dione], the “Traditional Western Degradation Potency” value was “C (“C”: >100 nM)”.

`C[C@@H]1Cc2c([nH]c3ccccc23)[C@@H](c2c(F)cc(N3CCC(N4CCC(CC(=O)N5Cc6cc7c(cc6C5)C(=O)N(C5CCC(=O)NC5=O)C7=O)CC4)CC3)cc2F)N1CC(F)F` (stereo partly drawn) [Compound B33, 6-(2-(1′-(4-((1R,3R)-2-(2,2-difluoroethyl)-3-methyl-2,3,4,9-tetrahydro-1H-pyrido[3,4-b]indol-1-yl)-3,5-difluorophenyl)-[1,4′-bipiperidin]-4-yl)acetyl)-2-(2,6-dioxopiperidin-3-yl)-6,7-dihydropyrrolo[3,4-f]isoindole-1,3(2H,5H)-dione]: the “Traditional Western Degradation Potency” value is “A (“A”: <10 nM)”.

With `C[C@@H]1Cc2c([nH]c3ccccc23)[C@@H](c2c(F)cc(N3CCC(N4CCC(CC(=O)N5Cc6cc7c(cc6C5)C(=O)N(C5CCC(=O)NC5=O)C7)CC4)CC3)cc2F)N1CC(F)F` (stereo partly drawn) [Compound B34, 3-(6-(2-(1′-(4-((1R,3R)-2-(2,2-difluoroethyl)-3-methyl-2,3,4,9-tetrahydro-1H-pyrido[3,4-b]indol-1-yl)-3,5-difluorophenyl)-[1,4′-bipiperidin]-4-yl)acetyl)-1-oxo-3,5,6,7-tetrahydropyrrolo[3,4-f]isoindol-2(1H)-yl)piperidine-2,6-dione], the “Traditional Western Degradation Potency” value is recorded as “A (“A”: <10 nM)”.
